Laboratory results from patent US12157740B2, “Triazolopyridines and triazolopyrimidines that lower stress-induced p-tau” (NantNeuro, LLC, priority 2015, dated 2024).
Blank lines part the entries; values can stand above or below the compound they belong to.

Columns and labels:
[1] = in vivo pharmacokinetics, plasma and brain levels; design: species or system mouse; conditions: for brain levels after subcutaneous injection: peak for J14 and J19; for time of peak levels after SQ injection: plasma and brain (J19: brain); for levels after oral delivery compared with injection: J32: plasma and brain
[2] = tested on: tau and phospho-tau in SHSY-5Y cells; assay: CRF-induced tau, p-tau and sAPPα changes in SHSY-5Y cells; assay type: cell-based; conditions: for p-tau/tau ratio: FIG. 32C
tau and p-tau = assay: effect of J03 and J19 on tau and p-tau (FIG. 39E-39F, system not given)
Description: JI9 decreased tau and both J03 and JI9 decreased p-tau (FIG. 39E). Therefore, while the p-tau/tau ratio looks unchanged for J19 FIG. 39F. This is due to the tau decrease and not due to a lack of effect.

[3] = tested on: tau and p-tau in SH-Sy5Y cells; assay: screens for tau and p-tau levels in SH-Sy5Y cells (no CRF stated); assay type: cell-based; conditions: for tau and/or p-tau lowering effect compared with J03: SH-Sy5Y screens (J04: p-tau only, FIG. 19; J17: FIGS. 21A-B; J14: FIG. 28A)
Method: As described below, in vitro studies were performed using SHSY-5Y cells. These cells are a useful neurological model that differentiate into cells with morphological and biochemical characteristics of mature neurons including mature isoforms of tau. […]

mice = assay: J14 daily SQ injection for 12 days in mice; assay type: in vivo, mouse
Method: (§1) Animal experiments were performed using J20 mice. The J20 mouse is a model of for Alzheimer's disease. This model overexpresses human APP with two mutations linked to familial Alzheimer's disease (the APP KM670/671NL (Swedish) and 5APP V717F (Indiana) mutations).
FIGS. 31A-31F depict total sAPPα, Aβ1-40, and Aβ1-42, and tau, p-tau, and p-tau/tau ratio, respectively, after daily SQ injection at 10 mkd does for 12 days.

J20 mice = assay: J17 pilot study in J20 mice (oral, 28 days); assay type: in vivo, mouse
Method: as §1
In a J17 pilot study (#1 pilot study) male and female J20 mice were housed singly and treated with J17 at 10 rnkd by oral delivery for 28 days.

[4] = CRF-1 at 0 nM, 50 nM and 100 nM, FIGS. 29B-29C
[5] = CRF-1 at 100 nM for 3 days, compound at 20 nM, FIG. 29A
[6] = compared to a control J03, FIGS. 33A-33B
[7] = 10 mg/kg intraperitoneal, FIG. 33D
[8] = primary screen in SH-Sy5Y cells, FIG. 19

Compound: CCC(COC)n1nnc2c(N(C)c3c(C)cc(C)cc3C)nc(C)nc21 (centres unmarked) [J14]
tau and/or p-tau lowering effect compared with J03 [3]: more than J03 | p-tau ([3]; screen of FIG. 28A): decreased | total tau ([3]; screen of FIG. 28A): decreased | p-tau ([3]; screen of FIG. 28B): neither J14 nor J03 decreased | total tau ([3]; screen of FIG. 28B): neither J14 nor J03 decreased | brain/plasma ratio after SQ injection ([1]; 10 mg/kg SQ): 0.6 | plasma level at peak after subcutaneous injection ([1]; 10 mg/kg SQ, FIG. 30A): 798 ng/mL | brain levels after subcutaneous injection ([1]; 10 mg/kg SQ): 485 ng/g | time of peak levels after SQ injection ([1]; 10 mg/kg SQ): 2 h | time of peak brain levels after oral feeding ([1]; 10 mg/kg oral, FIG. 30B): 2 h | brain levels after oral delivery ([1]; 10 mg/kg oral, peak for J14): 13.3 ng/g | brain:plasma ratio after oral delivery ([1]; oral feeding at 10 mg/kg): 1.33 | tau protein (mice; B254 mice (Swedish, Indiana and D664A APP mutations), trend for both vehicle and J14 treated, FIGS. 31D-31F): trend for lower levels | Aβ1-40 (mice; daily SQ injection 10 mkd for 12 days, FIG. 31B): trend toward decrease | Aβ1-42 (mice; daily SQ injection 10 mkd for 12 days, FIG. 31C): trend toward decrease | sAPPα (mice; daily SQ injection 10 mkd for 12 days, compared to vehicle treated mice, FIG. 31A): decrease | p-tau [2, 4]: decreasing | p-tau and tau decrease compared with J03 [2, 4]: more than J03 | tau [2, 4]: decreasing | p-tau [2, 5]: decreased | total tau [2, 5]: decreased

Compound: CCC(COC)n1nnc2c(N(C)c3ccc(OC)cc3C)nc(C)nc21 (centres unmarked) [J30]
total tau levels [3, 6]: lowered

Compound: CCC(COC)n1nnc2c(Nc3ccc(OC)cc3C)nc(C)nc21 (centres unmarked) [J04]
tau and/or p-tau lowering effect compared with J03 [3]: same level as J03 | p-tau [3, 8]: did lower | tau [3, 8]: did not lower | clearance after injection compared with oral delivery ([1]; SQ injection, FIG. 20A): slower | brain levels after SQ injection ([1]; dose not given, FIG. 20A): ~55 ng/g | brain levels after oral delivery ([1]; dose not given, FIG. 20A): ~55 ng/g

Compound: CCC(COC)Nc1nc(C)nc2c1nnn2-c1ccc(OC)cc1C (centres unmarked) [J17]
Aβ1-40/Aβ1-42 ratio (J20 mice; FIG. 26C): no significant difference | Aβ1-42 (J20 mice; data from all mice, FIG. 26A): no significant differences | activity (J20 mice; male and female J20 mice housed singly, oral 28 days, not significant, FIG. 24A): lowered | p-tau (J20 mice; male mice, FIG. 27B): slightly lower | p-tau/tau ratio (J20 mice; male mice, FIG. 27C): lower still | Aβ1-42 (J20 mice; male mice, low outlier from one sibling pair eliminated, FIG. 26B): significant reduction | Tau (J20 mice; males, FIG. 27A): increased | sAPPβ (J20 mice; oral 28 days, FIG. 25B): decrease | novel object preference, overall (J20 mice; oral 28 days, all mice, FIG. 24B): increase with J17 was significant | sAPPα (J20 mice; oral 28 days, both genders, FIG. 25A): increase with J03 but not J17 | ratio sAPPα/sAPPβ (J20 mice; oral 28 days, males, FIG. 25C): greater | tau ([3]; SH-Sy5Y cells, FIG. 21A): significantly lower | p-tau ([3]; SH-Sy5Y cells, FIG. 21B): significantly lower | tau and/or p-tau lowering effect compared with J03 [3]: greater | plasma levels after subcutaneous injection ([1]; 10 mg/kg SQ, FIG. 23A): ~4000 ng/m | brain levels after subcutaneous injection ([1]; 10 mg/kg SQ): ~400 ng/g | plasma levels relative to brain levels after oral delivery ([1]; 10 mg/kg oral, FIG. 23B): ~10 fold | brain levels after oral delivery ([1]; 10 mg/kg oral, peak for J14): ~50 ng/g | tau after exposure to CRF ([2]; FIG. 21D): decreased | p-tau after exposure to CRF ([2]; FIG. 21E): decreased | p-tau with increasing concentrations of CRF ([2]; seen at all concentrations of CRF tested, excluding 0, FIG. 22C): decrease | sAPPα with increasing concentrations of CRF ([2]; seen without CRF and at 50 nM, not at other concentrations, FIG. 22A): decrease | tau with increasing concentrations of CRF ([2]; seen without CRF and at 50 and 100 nM, FIG. 22B): decrease | sAPPα after exposure to CRF ([2]; versus control, FIG. 21C): the same for control as for J17

Continued, in another order:

brain levels after subcutaneous injection ([1]; 10 mg/kg SQ): ~190 ng/g | time of peak levels after SQ injection ([1]; 10 mg/kg SQ): 4 h | levels after oral delivery compared with injection ([1]; 10 mg/kg oral): much lower | persistence of brain levels after SQ injection ([1]; 10 mkd SQ, FIG. 32G): relatively high until 8 hours
Compound: CCC(COC)Nc1nc(C)nc2c1nnn2-c1ccc(Cl)cc1C (centres unmarked) [J19, 3-(4-Chloro-2-methylphenyl)-N-(1-methoxybutan-2-yl)-5-methyl-3H-[1,2,3]triazolo[4,5-d]pyrimidin-7-amine]
p-tau/tau ratio ([2]; at 50 and 100 nM CRF): highly significantly decreased | tau ([2]; in the absence of CRF and in the presence of 100 nM CRF, FIG. 32A): trend to decrease | p-tau/tau ratio ([2]; in the absence of CRF): decreased | p-tau ([2]; in the presence and absence of CRF, FIG. 32B): significantly reduced | sAPPα ([2]; with and without CRF, FIG. 32D): trend for sAPPα to be higher | p-tau (tau and p-tau; FIG. 39E): decreased | tau (tau and p-tau; FIG. 39E): decreased | p-tau/tau ratio (tau and p-tau; FIG. 39F as printed, due to the tau decrease): unchanged

brain/plasma ratio after SQ injection ([1]; 10 mg/kg SQ): 0.75 | time of peak levels after SQ injection ([1]; 10 mg/kg SQ): 1 h | clearance from brain after IP injection [1, 7]: cleared out slowly over 8 hours | time of peak brain levels after IP injection [1, 7]: 2 h | levels after oral delivery compared with injection ([1]; 10 mg/kg oral): much lower
Compound: CCC(COC)N(C)c1nc(C)nc2c1nnn2-c1c(C)cc(C)cc1C (centres unmarked) [J32]
p-tau/tau ratio ([3]; 1p M of J32 in SH-SY5Y cells, compared to J03 and a control, FIG. 33C): significant decrease | p-tau/tau ratio [3, 6]: significantly lowered
